Reference: patent US9409884B2 (Rigel Pharmaceuticals, Inc., priority 2012, dated 2016)
pEC50: −log10 of the molar value.

Molecular target: AMPK
Assay: AMPK activation, enzyme-linked immunosorbent assay
Type: biochemical
Method in brief: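 Read-out: ELISA, used to detect compound-driven activation of AMPK.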

pEC50 (Table 8, compounds of Table 1) | Structure (SMILES) | other results
– | N#Cc1ccc(CN2CCC(NC(=O)c3ccc(C(=O)N4CCN(Cc5ccc(S(=O)(=O)N6CCCC6)cc5)CC4)nc3)CC2)cc1 [Compound 4-16, N-(1-(4-cyanobenzyl)piperidin-4-yl)-6-(4-(4-(pyrrolidin-1-ylsulfonyl)benzyl)piperazine-1-carbonyl)nicotinamide] | pEC50 (Table 11, compounds of Table 4): > 6.30
– | COc1ccc(C(=O)C2CCN(C(=O)c3ccc(C(=O)NC4CCN(Cc5ccc(C#N)c(C)c5)C[C@H]4F)cn3)CC2)cc1 (stereo partly drawn) [Compound 7-59, N-((3,4-trans)-1-(4-cyano-3-methylbenzyl)-3-fluoropiperidin-4-yl)-6-(4-(4-methoxybenzoyl)piperidine-1-carbonyl)nicotinamide] | pEC50 (Table 14, compounds of Table 7): > 6.00
> 7.00 | N#Cc1ccc(CN2CCC(NC(=O)c3cc4cc(O[C@@H]5CCN(Cc6ccc(OC(F)(F)F)cc6)C[C@H]5F)ccc4o3)CC2)cc1 [Compound 1-168, N-(1-(4-cyanobenzyl)piperidin-4-yl)-5-((3,4-trans)-3-fluoro-1-(4-(trifluoromethoxy)benzyl)piperidin-4-yloxy)benzofuran-2-carboxamide] | –
– | COc1ccc(CN2CCC(NC(=O)c3ccc(C(=O)N4CCC(C(=O)c5ccc(OC)cc5)CC4)nc3)[C@@H](C(F)(F)F)C2)cc1 (stereo partly drawn) [Compound 7-102, 6-(4-(4-methoxybenzoyl)piperidine-1-carbonyl)-N-((3,4-cis)-1-(4-methoxybenzyl)-3 - (trifluoromethyl)piperidin-4-yl)nicotinamide] | pEC50 (Table 14, compounds of Table 7): > 6.00
6.00 to 6.30 | N#Cc1ccc(CN2CCC(NC(=O)c3cc4ccc(OC5CCN(Cc6cnn(-c7ccc(C#N)cc7)c6)CC5)cc4o3)CC2)cc1 [Compound 1-161, N-(1-(4-cyanobenzyl)piperidin-4-yl)-6-(1-((1-(4-cyanophenyl)-1H-pyrazol-4-yl)methyl)piperidin-4-yloxy)benzofuran-2-carboxamide] | –
> 7.00 | O=C(NC1CCN(Cc2ccncc2)CC1)c1cc2ccc(OC3CCN(c4ccc(C(F)(F)F)cc4)CC3)cc2o1 [Compound 1-87, N-(1-(pyridin-4-ylmethyl)piperidin-4-yl)-6-(1-(4-(trifluoromethyl)phenyl)piperidin-4-yloxy)benzofuran-2-carboxamide] | –
– | N#Cc1ccc(CN2CCC(NC(=O)c3cn4ccc(OC5CCN(c6ccc(C(F)(F)F)cc6)CC5)cc4n3)CC2)cc1 [Compound 3-18, N-(1-(4-cyanobenzyl)piperidin-4-yl)-7-(1-(4-(trifluoromethyl)phenyl)piperidin-4-yloxy)imidazo[1,2-a]pyridine-2-carboxamide] | pEC50 (Table 10, compounds of Table 3): > 7.00
5.30 to 6.00 | CC(C)(C)OC(=O)N1CC[C@H](NC(=O)c2cc3cc(OC4CCN(Cc5ccc(Cl)cc5)CC4)ccc3o2)C1 [Compound 1-127, (S)-tert-butyl 3-(5-(1-(4-chlorobenzyl)piperidin-4-yloxy)benzofuran-2-carboxamido) pyrrolidine-1-carboxylate] | –
– | O=C(NC1CCN(Cc2ccccn2)CC1)c1ccc(OC2CCN(c3ccc(C(F)(F)F)cc3)CC2)c(F)c1 [Compound 5-32, 3-fluoro-N-(1-(pyridin-2-ylmethyl)piperidin-4-yl)-4-(1-(4-(trifluoromethyl)phenyl)piperidin-4-yloxy)benzamide] | pEC50 (Table 12, compounds of Table 5): > 6.00
6.30 to 7.00 | O=C(NC1CCNCC1)c1cc2ccc(OC3CCN(c4ccc(C(F)(F)F)cc4)CC3)cc2s1 [Compound 1-141, N-(piperidin-4-yl)-6-(1-(4-(trifluoromethyl)phenyl)piperidin-4-yloxy)benzo[b] thiophene-2-carboxamide] | –
> 7.00 | O=C(NC1CCN(Cc2ccccc2)CC1)c1cc2cc(OC3CCN(c4ccc(C(F)(F)F)cc4)CC3)ccc2o1 [Compound 1-75, N-(1-benzylpiperidin-4-yl)-5-(1-(4-(trifluoromethyl)phenyl)piperidin-4-yloxy)benzofuran-2-carboxamide] | –
– | CC(C)S(=O)(=O)c1ccc(N2CCN(C(=O)c3ccc4oc(C(=O)NC5CCN(Cc6ccc(C#N)cc6)CC5)cc4c3)CC2)cc1 [Compound 6-108, N-(1-(4-cyanobenzyl)piperidin-4-yl)-5-(4-(4-(isopropylsulfonyl)phenyl)piperazine-1-carbonyl) benzofuran-2-carboxamide] | pEC50 (Table 13, compounds of Table 6): > 7.00
